From PubChem BioAssay AID248 (DTP/NCI, 2004)
Values joined by “and” are separate entries in the source; they are usually repeats but may differ in a detail not shown here. Equal entries are not always repeated. Toxic doses and inconclusive results are not listed. No stated cut-off is given here; in the data, active means T/C of 150% or more; inactive means T/C below 125%.

System: L1210 leukemia ip in BDF1 mice, survival T/C
Experiment: NCI In Vivo Anticancer Drug Screen. Data for tumor model L1210 Leukemia (intraperitoneal) in B6D2F1 (BDF1) mice
Conditions: endpoint: mean survival time, higher = longer survival
Procedure, shortened: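 Tumor cells were implanted, animals were treated, and survival was followed. The result divides the treated measurement by the vehicle-control measurement.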

[1] = dose: 50.0 mg/kg/injection, schedule: Q01DX001 (ip), vehicle: saline
[2] = dose: 50.0 mg/kg/injection, schedule: Q04DX003 (ip), vehicle: Klucel (hydroxypropylcellulose) (HPC)
[3] = dose: 100.0 mg/kg/injection, schedule: Q04DX003 (ip), vehicle: Klucel (hydroxypropylcellulose) (HPC)
[4] = dose: 200.0 mg/kg/injection, schedule: Q04DX003 (ip), vehicle: Klucel (hydroxypropylcellulose) (HPC)
[5] = dose: 400.0 mg/kg/injection, schedule: Q04DX003 (ip), vehicle: Klucel (hydroxypropylcellulose) (HPC)
[6] = dose: 100.0 mg/kg/injection, schedule: Q01DX001 (ip), vehicle: saline
[7] = dose: 200.0 mg/kg/injection, schedule: Q01DX001 (ip), vehicle: saline
[8] = dose: 400.0 mg/kg/injection, schedule: Q01DX001 (ip), vehicle: saline
[9] = dose: 100.0 mg/kg/injection, schedule: Q04DX002 (ip), vehicle: Klucel (hydroxypropylcellulose) (HPC)
[10] = dose: 200.0 mg/kg/injection, schedule: Q04DX002 (ip), vehicle: Klucel (hydroxypropylcellulose) (HPC)
[11] = dose: 400.0 mg/kg/injection, schedule: Q04DX002 (ip), vehicle: Klucel (hydroxypropylcellulose) (HPC)
[12] = dose: 100.0 mg/kg/injection, schedule: Q04DX003 (ip), vehicle: saline with Tween-80
[13] = dose: 200.0 mg/kg/injection, schedule: Q04DX003 (ip), vehicle: saline with Tween-80
[14] = dose: 100.0 mg/kg/injection, schedule: Q04DX003 (ip), vehicle: saline
[15] = dose: 200.0 mg/kg/injection, schedule: Q04DX003 (ip), vehicle: saline
[16] = dose: 400.0 mg/kg/injection, schedule: Q04DX003 (ip), vehicle: saline
[17] = dose: 400.0 mg/kg/injection, schedule: Q04DX003 (ip), vehicle: saline with Tween-80

Measured: T/C

CCN(CC)Cc1cc(Nc2nc(/C=C/c3ccc(Cl)cc3)nc(Cl)c2-c2ccc(Cl)cc2)ccc1O
inactive: dose: 12.0 mg/kg/injection, schedule: Q01DX001 (ip), vehicle: saline 100 % of control | dose: 12.5 mg/kg/injection, schedule: Q04DX003 (ip), vehicle: Klucel (hydroxypropylcellulose) (HPC) 95 % of control | dose: 25.0 mg/kg/injection, schedule: Q01DX001 (ip), vehicle: saline 107 % of control | dose: 25.0 mg/kg/injection, schedule: Q04DX003 (ip), vehicle: Klucel (hydroxypropylcellulose) (HPC) 98 % of control | [1] 100 % of control | [2] 97 % of control

CC(CC#N)OC(=O)c1cccc([N+](=O)[O-])c1 (stereo not given)
inactive: dose: 100.0 mg/kg/injection, schedule: Q01DX009 (ip), vehicle: Klucel (hydroxypropylcellulose) (HPC) 91 % of control | [3] 115 % of control | dose: 200.0 mg/kg/injection, schedule: Q01DX009 (ip), vehicle: Klucel (hydroxypropylcellulose) (HPC) 93 % of control | [4] 93 % of control | dose: 400.0 mg/kg/injection, schedule: Q01DX009 (ip), vehicle: Klucel (hydroxypropylcellulose) (HPC) 98 % of control | [5] 105 % of control

O=[N+]([O-])c1ccc(/C=N/N2CCN(/N=C/c3ccc([N+](=O)[O-])cc3)CC2)cc1
inactive: [6] 96 % of control | [7] 92 % of control | [8] 92 % of control

O=C(O)c1cc([N+](=O)[O-])ccc1O
inactive: dose: 100.0 mg/kg/injection, schedule: Q01DX001 (ip), vehicle: carboxymethylcellulose (CMC) 95 % of control | dose: 100.0 mg/kg/injection, schedule: Q04DX002 (ip), vehicle: saline 101 % of control | dose: 200.0 mg/kg/injection, schedule: Q01DX001 (ip), vehicle: carboxymethylcellulose (CMC) 95 % of control | dose: 200.0 mg/kg/injection, schedule: Q04DX002 (ip), vehicle: saline 101 % of control | dose: 400.0 mg/kg/injection, schedule: Q04DX002 (ip), vehicle: saline 101 % of control

CCCc1nc2ccccc2c(=O)n1/N=C/c1ccc(Cl)cc1Cl
inactive: [9] 96 % of control | [10] 92 % of control | [11] 103 % of control

O=C(/C=C/c1ccccc1)N1CC2CCC(CC2)C1
inactive: [12] 95 % of control | [13] 93 % of control

CC1CSC(=S)S1 (stereo not given)
inactive: [2] 102 % of control | [3] 107 % of control | [4] 104 % of control

Nc1ncnc2c1ncn2C1OC(C2CC2)C(O)C1O (stereo not given)
inactive: dose: 25.0 mg/kg/injection, schedule: Q01DX005 (ip), vehicle: saline 111 % of control | dose: 50.0 mg/kg/injection, schedule: Q01DX005 (ip), vehicle: saline 104 % of control | dose: 100.0 mg/kg/injection, schedule: Q01DX005 (ip), vehicle: saline 98 % of control | dose: 200.0 mg/kg/injection, schedule: Q01DX005 (ip), vehicle: saline 94 % of control

CC1(C)SC2C(NC(=O)Cc3ccccc3)C(=O)N2C1C(=O)O (stereo not given)
inactive: [1] 104 % of control | [6] 98 % of control and 107 % of control | [14] 101 % of control | [7] 96 % of control and 107 % of control | [15] 104 % of control | [8] 98 % of control | [16] 104 % of control

C=CCNC(=O)NCCSC(=O)SCCCC
inactive: dose: 100.0 mg/kg/injection, schedule: Q01DX001 (ip), vehicle: Klucel (hydroxypropylcellulose) (HPC) 103 % of control | dose: 200.0 mg/kg/injection, schedule: Q01DX001 (ip), vehicle: Klucel (hydroxypropylcellulose) (HPC) 100 % of control | dose: 400.0 mg/kg/injection, schedule: Q01DX001 (ip), vehicle: Klucel (hydroxypropylcellulose) (HPC) 100 % of control

N#CCC(C#N)N1CCCCC1 (stereo not given)
inactive: dose: 0.39 mg/kg/injection, schedule: Q01DX009 (ip), vehicle: other 100 % of control | dose: 0.78 mg/kg/injection, schedule: Q01DX009 (ip), vehicle: other 96 % of control | dose: 1.56 mg/kg/injection, schedule: Q01DX009 (ip), vehicle: other 94 % of control | dose: 3.12 mg/kg/injection, schedule: Q04DX003 (ip), vehicle: other 94 % of control | dose: 6.25 mg/kg/injection, schedule: Q04DX003 (ip), vehicle: other 100 % of control | dose: 12.5 mg/kg/injection, schedule: Q01DX001 (ip), vehicle: other 103 % of control | dose: 12.5 mg/kg/injection, schedule: Q04DX003 (ip), vehicle: other 100 % of control

C=C(CSCC(N)=O)c1ccccc1
inactive: [9] 97 % of control | [10] 97 % of control | [11] 94 % of control

COC(=O)C1C(=O)CC2(C)CCCCC12 (stereo not given)
inactive: [9] 97 % of control | [10] 100 % of control | [11] 93 % of control

C[n+]1cccc(C#N)c1
inactive: dose: 37.5 mg/kg/injection, schedule: Q04DX003 (ip), vehicle: saline 100 % of control | dose: 75.0 mg/kg/injection, schedule: Q01DX001 (ip), vehicle: saline 106 % of control | dose: 75.0 mg/kg/injection, schedule: Q04DX003 (ip), vehicle: saline 107 % of control | dose: 150.0 mg/kg/injection, schedule: Q01DX001 (ip), vehicle: saline 106 % of control | dose: 150.0 mg/kg/injection, schedule: Q04DX003 (ip), vehicle: saline 91 % of control

CC1CCC(NC2=NCCO2)C1 (stereo not given)
inactive: [12] 96 % of control | [13] 93 % of control | [17] 93 % of control

O=C(Cc1ccc(Cl)cc1)N/N=C/c1ccc([N+](=O)[O-])s1
inactive: [14] 93 % of control | [15] 93 % of control | [16] 90 % of control

CCN(CC)c1ccc(C(=O)OC(C)CNCC(C)CCCC(C)C)cc1 (stereo not given)
inactive: dose: 75.0 mg/kg/injection, schedule: Q01DX001 (ip), vehicle: carboxymethylcellulose (CMC) 90 % of control | dose: 150.0 mg/kg/injection, schedule: Q01DX001 (ip), vehicle: carboxymethylcellulose (CMC) 94 % of control | dose: 300.0 mg/kg/injection, schedule: Q01DX001 (ip), vehicle: carboxymethylcellulose (CMC) 93 % of control

CC1CC(=O)c2cccc(Cl)c2N1C (stereo not given)
inactive: [3] 100 % of control | [4] 100 % of control | [5] 98 % of control

S=c1sc2ccccc2n1CN(c1ccccc1)c1ccc2ccccc2c1
inactive: dose: 100.0 mg/kg/injection, schedule: Q01DX009 (ip), vehicle: saline with Tween-80 88 % of control | [12] 88 % of control | dose: 200.0 mg/kg/injection, schedule: Q01DX009 (ip), vehicle: saline with Tween-80 90 % of control | [13] 88 % of control | dose: 400.0 mg/kg/injection, schedule: Q01DX009 (ip), vehicle: saline with Tween-80 94 % of control | [17] 93 % of control

CCOC(=O)C(Cl)C(C)(O)c1ccccc1 (stereo not given)
inactive: dose: 100.0 mg/kg/injection, schedule: Q04DX002 (ip), vehicle: saline with Tween-80 95 % of control | dose: 200.0 mg/kg/injection, schedule: Q04DX002 (ip), vehicle: saline with Tween-80 95 % of control
